Drawing on ChEMBL document CHEMBL1132858, “1,1-Dimethylallylcoumarins potently suppress both lipopolysaccharide- and interferon-gamma-induced nitric oxide generation in mouse macrophage RAW 264.7 cells” (2000), this text covers Activity, inhibition and Inhibition for 15 compounds.

Structures are written as SMILES. Calls of active or inactive are those of the source. The calls are words filed in the database; no cut-off is given here.

The species entered for experiment [1] is Mus musculus. Nature of the experiment: Compound was tested for cytotoxicity against mouse macrophage RAW 264.7 cells using MTT assay; Inactive. Format: functional, cell-based. (In general: Tetrazolium dyes change colour on reduction, which living cells bring about.)
For experiment [2], the species on record is Mus musculus. In words: Compound was tested for the inhibitory activity against mouse macrophage RAW 264.7 cells at the concentration of 50 uM; Inactive. It counts as functional, cell-based.
For experiment [3], the species on record is Mus musculus. In words: Percent inhibition of nitric oxide generation in both lipopolysaccharide and interferon gamma induced mouse macrophage RAW 264.7 cells at the concentration of 10 uM. Format: functional.
The species named for experiment [4] is Mus musculus. In words: Percent inhibition of nitric oxide generation in both lipopolysaccharide and interferon gamma induced mouse macrophage RAW 264.7 cells. Format: functional.

As to `C=C(C)[C@H]1O[C@@H]1c1c(OC)ccc2ccc(=O)oc12`, the outcome in experiment [1] was inactive.
The same measure, in the same setting: the same measure for `CC(C)(O)[C@@H]1Cc2c(ccc3ccc(=O)oc23)O1`: “inactive”.
For `CC(C)=CCC/C(C)=C/CC/C(C)=C/COc1ccc2ccc(=O)oc2c1`, the outcome in experiment [2] was inactive.
For the compound `COc1ccc2ccc(=O)oc2c1C1=C(C)COC1=O`, the result in experiment [1] was inactive.
Still for that read-out and setting: with `C=C1COC2Oc3ccc4ccc(=O)oc4c3C12` (stereo not drawn) the entry was “inactive”; with `C=CCOc1ccc2ccc(=O)oc2c1`, “inactive”.
In general, inhibition refers to the relative decrease from the control value, in per cent. With `C=CC(C)(C)c1cc2c(O)c3c(c(C(C)(C)C=C)c2oc1=O)OC(C)(C)C=C3` [CLAUSARIN], in experiment [2], the result was inactive. The inhibition at 10 µM in experiment [3] was 91.2%.
For `C=CC(C)(C)c1c2c(c(O)c3ccc(=O)oc13)C=CC(C)(C)O2` [NORDENTATIN], in that order: “inactive” and 91.2%.
With `CC(C)=CCOc1ccc2ccc(=O)oc2c1`, in experiment [2], the outcome was inactive.
With `C=CCc1c(O)ccc2ccc(=O)oc12`, in experiment [1], the outcome was inactive.
In general, Inhibition refers to the relative decrease from the control value, in per cent. High values mean a response far below the control, low ones a response near the control. For the compound `CC1(C)OC1COc1c2occc2cc2ccc(=O)oc12` (stereo not drawn) [HERACLENINPRANGENIN], the Inhibition in experiment [4] was found to be 36.9%.
For `O=c1ccc2c(O)cc(O)cc2o1`, the result in experiment [1] was inactive.
Regarding `C=C(COC(=O)CC(C)C)C1OC1c1c(OC)ccc2ccc(=O)oc12` (stereo not drawn), the Inhibition in experiment [4] was 86.1%.
Turning to `C=CC(C)(C)Oc1c2c(c(C(C)(C)C=C)c3oc(=O)ccc13)OC(C)(C)C=C2`, the outcome in experiment [2] was inactive. 10 µM produced 91.2% inhibition in experiment [3].
`CC(C)=CCc1c(O)ccc2ccc(=O)oc12`: in experiment [2], the outcome was inactive.
